Data as given in article PMC11117723, “Benzene with Alkyl Chains Is a Universal Scaffold for Multivalent Virucidal Antivirals” (ACS Central Science, 2024).
Entries after “also recorded” stand apart in the source; their conditions may differ. Like-named read-outs stand apart in the source and are kept apart here.

What was measured:
SARS-CoV-2 Alpha = type: in vivo, Syrian hamster
Raji cells = experiment: Raji cell cytotoxicity (Zombie NIR flow cytometry); settings: read-out: CC50 (95% CI), Raji cells; EBV line
MDCK cells = settings: read-out: CC50 (95% CI), MDCK cells
TZM-bl cells = experiment: TZM-bl cell cytotoxicity (WST-1); settings: read-out: CC50 (95% CI), TZM-bl cells; HIV-1 line
HSV-2 [1] = experiment: HSV-2 DNA release (DNA exposure) assay with DNase; settings: 43.2 and 86.5 μM
Protocol: To determine whether the virucidal effect is caused by the damage to the viral particles, we performed DNA release assays. Briefly, we incubated HSV-2 and B6C11S mixtures with DNase or buffer, inactivated the DNase, and then quantified the DNA amounts in the two samples (Figure 2c).

HEK293T cells = experiment: HEK293T cell cytotoxicity (Zombie NIR flow cytometry); settings: read-out: CC50 (95% CI), 293T cells; HEK293T cells; KSHV line
HSV-2 [2] = experiment: HSV-2 inhibition under four treatment conditions (cell pretreatment, virus pretreatment, cotreatment, post-treatment); type: cell-based
Vero cells = experiment: Vero cell cytotoxicity (MTS assay); type: cell-based; settings: 24 h, read-out: CC50 (95% CI), Vero cells

SMILES: O=S(=O)(O)OCCCCCCCCCCCSCc1c(CSCCCCCCCCCCCOS(=O)(=O)O)c(CSCCCCCCCCCCCOS(=O)(=O)O)c(CSCCCCCCCCCCCOS(=O)(=O)O)c(CSCCCCCCCCCCCOS(=O)(=O)O)c1CSCCCCCCCCCCCOS(=O)(=O)O [B6C11S]
- body weight change of infected hamsters (SARS-CoV-2 Alpha; […], vs untreated group): no significant change
- body weight change of infected hamsters (SARS-CoV-2 Alpha; hamster, in vivo): decreased the body weight change
- histopathological evaluation of lung tissues (SARS-CoV-2 Alpha; hamster, in vivo): improved pulmonary conditions
- infectious viral titer (TCID50) in the lungs vs untreated (SARS-CoV-2 Alpha; hamster, in vivo): significantly decreased the viral titer; also recorded: significant reduction in the infectious viral load
- severe lung damage (histopathology categories E and F) (SARS-CoV-2 Alpha; hamster, in vivo): reducing severe lung damage
- viral RNA copies in lung vs untreated (SARS-CoV-2 Alpha; hamster, in vivo): significantly decreased viral RNA copies
- viral RNA levels in oral swab vs untreated (SARS-CoV-2 Alpha; hamster, in vivo): significantly lower viral RNA levels
- viral titers (viral RNA) in swab samples and lung tissues vs untreated (SARS-CoV-2 Alpha; hamster, in vivo): did not find any notable differences; also recorded: No statistical difference
- CC50 (Raji cells): > 162 µM
- CC50 (Vero E6 cells; read-out: CC50 (95% CI), Vero E6 cells, SARS-CoV-2 (Alpha) line): 17.5 µM
- CC50 (Vero E6 cells; read-out: CC50 (95% CI), Vero E6 cells, value repeated in the SARS-CoV-2 (Omicron) line): 17.5 µM
- CC50 (MDCK cells): > 5.4 µM
- CC50 (TZM-bl cells): > 54 µM
- release of viral DNA (HSV-2) (HSV-2 [1]): induced the release of viral DNA
- CC50 (HEK293T cells): > 162 µM
- HSV-2 inhibition, cell pretreatment (HSV-2 [2]; condition (i) cell pretreatment, 21.6 μM): no inhibition
- decrease of percentage of infected cells (HSV-2 [2]; condition (ii) virus pretreatment, 5.4 μM): over 85%
- decrease of percentage of infected cells (HSV-2 [2]; condition (iii) cotreatment, 5.4 μM): over 85%
- decrease of percentage of infected cells (HSV-2 [2]; condition (iv) post-treatment, 21.6 μM): 85%
- CC50 (Vero cells): 200 µM
